pIC50: −log10 of the molar value. Where two headings read alike, the source gives them in different places.
Tests used:
HIV = assay: Antiviral assay, HIV-induced cytopathic effect in CEM cells (tetrazolium/formazan viability readout); format: cell-based; conditions: Human immunodeficiency virus 1, CCRF-CEM; for IC90: read-out: IC₉₀
Description: (§1) The antiviral activity of the AZT prodrug was evaluated in the Retrovirus Research Laboratory at Southern Research Institute. The AZT prodrug (Structure 5) was tested against HIV in CEM cells in a standardized assay system. In this assay the CEM cells were grown in microtitre plates and incubated for 6 day with or without a HIV. The cells were incubated with prodrug or AZT at varying concentrations. After 6 days the percentage of viable cells was measured by employing a standardized assay based upon the conversion of a tetrazolium salt to a formazan chromaphore by viable cells. (T.Mossman; J.Immunol.Methods 65:55 (1983)) The production of the chromaphore was measured spectrophotometrically with a Molecular Devices Vmax plate reader at 570 nm. From the optical density data a computer program calculated the per cent reduction in viral cytopathic effect (CPE), the prodrugs cytotoxic effect, and IC₅₀ values.
The IC₅₀ value; defined as that concentration of drug inhibited the HIV induced CPE 50% was 24 nanamolar for the AZT prodrug. […] When the prodrug was added to the cell cultures 8 hours prior to infecting with HIV the IC₅₀ for the prodrug was 5 nanamolar. The IC9₉₀ for the prodrug was 10 nanamolar. The IC₅₀ for AZT under the same conditions was also 5 nanamolar. The IC₉₀ for AZT was 10 nanamolar. The data is summarized in the graph below for an experiment in which the prodrug or AZT were added 8 hours prior to the time of infection with the HIV. [formula] The graph below summarizes the results of an experiment in which the antiviral activity of the AZT prodrug was added 8 hours prior to infection or at the time of infection. [formula]

[1] = target: HIV reverse transcriptase (Human immunodeficiency virus type 1 group M subtype B, UniProt P04585); conditions: read-out: concentration at which HIV reverse transcriptase is inhibited by 50%; cited from earlier work
acetylcholinesterase [2] = target: T1, acetylcholinesterase (Electrophorus electricus, UniProt O42275); assay: Acetylcholinesterase activity inhibition assay, electric eel extract; format: biochemical; conditions: at 10⁻⁵ M
T1 construct: tested for anticholinesterase acitivity in chicken brain homogenate and electric eel extract; from tissue
T1 sequence (O42275 24-633): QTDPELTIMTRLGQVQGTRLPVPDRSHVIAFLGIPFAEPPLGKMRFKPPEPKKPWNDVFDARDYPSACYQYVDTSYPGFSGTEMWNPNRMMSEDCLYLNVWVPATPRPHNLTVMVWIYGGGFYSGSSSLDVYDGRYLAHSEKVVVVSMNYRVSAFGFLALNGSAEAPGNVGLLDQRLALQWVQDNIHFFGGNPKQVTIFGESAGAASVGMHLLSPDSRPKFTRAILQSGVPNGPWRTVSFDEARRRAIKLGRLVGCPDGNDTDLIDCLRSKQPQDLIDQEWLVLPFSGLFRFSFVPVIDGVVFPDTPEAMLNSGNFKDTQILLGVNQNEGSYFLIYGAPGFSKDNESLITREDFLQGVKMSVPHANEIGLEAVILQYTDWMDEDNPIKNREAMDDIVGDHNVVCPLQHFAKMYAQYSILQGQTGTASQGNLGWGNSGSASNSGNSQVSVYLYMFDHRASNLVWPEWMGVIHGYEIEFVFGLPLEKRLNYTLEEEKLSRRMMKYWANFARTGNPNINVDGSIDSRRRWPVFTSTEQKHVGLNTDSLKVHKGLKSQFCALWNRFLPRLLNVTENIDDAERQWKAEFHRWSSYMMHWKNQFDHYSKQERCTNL
Description: (§2) The AZT prodrug was evaluated for anticholinesterase activity at the Laboratory of Neurotoxicology and Pharmacology at Duke University using a standard well established acetylcholinesterase activity inhibition assay. Elleman et. al.; Biochemical Pharmacology; 7:88 (1962) The prodrug was tested for anticholinesterase acitivity in chicken brain homogenate and electric eel extract.

[3] = Acute toxicity in mice, intraperitoneal; format: in vivo; conditions: IP
[4] = Cytotoxicity in uninfected CEM cells (tetrazolium/formazan viability readout); format: cell-based; conditions: human, 6 days, read-out: TC₅₀ (concentration that resulted in a 50% reduction of cell viability in uninfected cells)
Description: as §1
The IC₅₀ value; defined as that concentration of drug inhibited the HIV induced CPE 50% was 24 nanamolar for the AZT prodrug. […] When the prodrug was added to the cell cultures 8 hours prior to infecting with HIV the IC₅₀ for the prodrug was 5 nanamolar. The IC9₉₀ for the prodrug was 10 nanamolar. The IC₅₀ for AZT under the same conditions was also 5 nanamolar. The IC₉₀ for AZT was 10 nanamolar. […]

acetylcholinesterase [5] = target: T2, acetylcholinesterase (Gallus gallus, UniProt P36196); assay: Acetylcholinesterase activity inhibition assay, chicken brain homogenate; format: biochemical; conditions: at 10⁻⁵ M
T2 construct: tested for anticholinesterase acitivity in chicken brain homogenate and electric eel extract; from tissue; host or cells: chicken brain homogenate
T2 sequence (P36196 20-767): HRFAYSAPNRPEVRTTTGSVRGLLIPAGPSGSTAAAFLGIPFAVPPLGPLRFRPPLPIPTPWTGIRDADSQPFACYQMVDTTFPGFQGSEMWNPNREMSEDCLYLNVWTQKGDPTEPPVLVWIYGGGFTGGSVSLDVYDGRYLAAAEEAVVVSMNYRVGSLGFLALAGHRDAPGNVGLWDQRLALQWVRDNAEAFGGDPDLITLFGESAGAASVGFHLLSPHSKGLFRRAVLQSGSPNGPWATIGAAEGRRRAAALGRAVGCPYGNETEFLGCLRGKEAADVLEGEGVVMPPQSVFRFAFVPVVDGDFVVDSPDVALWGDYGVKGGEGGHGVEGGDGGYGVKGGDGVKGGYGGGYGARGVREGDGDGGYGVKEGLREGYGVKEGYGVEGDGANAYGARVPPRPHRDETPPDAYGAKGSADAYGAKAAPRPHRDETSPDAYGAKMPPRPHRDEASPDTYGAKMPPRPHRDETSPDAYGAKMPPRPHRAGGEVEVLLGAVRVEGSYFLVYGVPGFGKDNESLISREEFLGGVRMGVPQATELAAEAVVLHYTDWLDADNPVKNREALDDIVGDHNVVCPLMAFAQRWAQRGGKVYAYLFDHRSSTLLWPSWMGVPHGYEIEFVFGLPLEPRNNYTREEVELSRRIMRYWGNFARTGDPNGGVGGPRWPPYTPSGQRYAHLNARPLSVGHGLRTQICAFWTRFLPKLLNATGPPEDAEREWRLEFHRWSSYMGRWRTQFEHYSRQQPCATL
Description: as §2

[6] = cited from earlier work
[7] = added 8 hours prior to infecting with HIV, read-out: IC₅₀
[8] = added 8 hours prior to infecting with HIV

## Cc1cn([C@H]2C[C@H](N=[N+]=[N-])[C@@H](CO)O2)c(=O)[nH]c1=O [AZT, 3'azido-3'deoxythymidine, reference compound]
HIV; [7]
  pIC50: 8.30
HIV; [8]
  IC90: 10 nM

## O=C(O)P(=O)(O)O [Phosphonoformate]
[1]
  pIC50: > 5.70

## CCOC(=O)CC(OP(=O)(OC[C@H]1O[C@@H](n2cc(C)c(=O)[nH]c2=O)C[C@@H]1N=[N+]=[N-])OC(CC(=O)OCC)c1ccc(OC(C)=O)cc1)c1ccc(OC(C)=O)cc1 (stereo partly drawn) [AZT prodrug]
Acetylcholinesterase [2]
  inhibition of acetylcholinesterase activity: No inhibition
[3]; mice, 100 mg/kg as an emulsion in 5% Emulphor EL 620
  acute toxicity: no acute toxicity
[3]; one mouse, 300 mg/kg, 24 hour period of observation
  acute toxicity: without evident acute toxicity
[4]
  CC50 at 144 h: 7800 nM
Acetylcholinesterase [5]
  inhibition of acetylcholinesterase activity: No inhibition
HIV; 144 h, 6 days, drug not added before infection, read-out: IC₅₀ (concentration that inhibited the HIV induced CPE 50%)
  pIC50: 7.62
HIV; [7]
  pIC50: 8.30
HIV; [8]
  IC90: 10 nM

## COc1cc(C=CC(C)=O)ccc1O [methyl 4-hydroxy,3-methoxy-styryl ketone]
[6]
  oral LD₅₀: > 2 grams/kg

— patent publication EP0533833B1, “PHOSPHOROUS PRODUGS” (priority 1990, dated 1991)
